Experiments:
[1] = tested on: TM40DNeo, TM40DMp and TM40DT cells; test: MTT in vitro cell proliferation assay with NAC treatment; type: cell-based, mouse
Method: MTT in vitro cell proliferation assay—Cells were seeded at 10^3 cells/well in 96—well plate and allowed to grow at 37° C. with 5% CO2. At each time point MTT (3-(4, 5-dimethylthiazolyl-2)-2, 5 diphenyltetrazolium bromide) reagent (5 mg/ml) was added in a volume of 10 μl per well and incubated at 37° C. with 5% CO2 for 3 hrs. The media was aspirated and 100 μl of DMSO was added and mixed until a uniform purple color was formed. The cell samples were measured using a plate reader at 570 nm. Assays were performed in triplicates.

[2] = tested on: pERK1/2 in TM40DNeo, TM40DMp and TM40DT cells; test: ERK1/2 phosphorylation (Western blot) with NAC treatment; type: cell-based, mouse
Method: ERK1/2 phosphorylation—Protein lysates (30 μg) were separated on 12% SDS-PAGE and phospho-plus kit was used to determine the ERK1/2 phosphorylation (Cat No. 9100, Cell Signaling Technology).

**Q.** With `CC(=O)N[C@@H](CS)C(=O)O` [NAC, N-acetyl cysteine] as the compound, how does the proliferation rate ([1]; TM40DMp cells) read?
**A.** no significant change

**Q.** And the proliferation rate ([1]; TM40DNeo cells)?
**A.** significant drop

**Q.** What about the proliferation rate ([1]; TM40DT cells) of the same compound?
**A.** significant drop

**Q.** And the “levels of activated pERK1/2” value ([2]; TM40DMp cells)?
**A.** no change

**Q.** What about the “levels of activated pERK1/2” value ([2]; TM40DNeo cells) of the same compound?
**A.** significantly reduced

**Q.** What about the “levels of activated pERK1/2” value ([2]; TM40DT cells) of the same compound?
**A.** significantly reduced
